Measurements published in patent US20080312326A1, “Method for the Prevention and/or Treatment of Neurodegenerative Diseases Characterized by Administering and Ep1 Receptor Antagonist” (THE JOHN HOPKINS UNIVERSITY, priority 2005, published 2008).

What was measured:
[1] = test system: NMDA-induced brain lesion in C57BL/6 mice; experiment: NMDA-induced brain lesion after ICV pretreatment, wildtype mice; assay type: in vivo; details: for brain lesion volume (NMDA-induced): lesion at 48 h, vs NMDA-lesion and vehicle-NMDA groups
Method: (§1) Following protocols approved by the Institutional Animal Care and Use Committee of Johns Hopkins University, adult male C57BL/6 mice (Charles River, Wilmington, Mass.) and EP1^−/−, weighing 20-25 g were used in this study.
Weight and rectal temperature of each mouse was recorded before the surgical procedure. The mouse was subjected to intracerebroventricular (ICV) injection of vehicle or freshly prepared compound A or compound B followed by unilateral intrastriatal injection of NMDA, prepared in phosphate buffer saline (pH˜7.2) (J. Neurosci. 1997, 17, 6908-6917). In brief, each mouse was anesthetized, maintained at 1.0% halothane, and mounted on a stereotaxic frame (Stoelting Co., Wood Dale, Ill.). Varying body-weight (BW) doses of compound A (0.1 nmol/kg BW, n=8; 1 nmol/kg BW, n=12; 10 nmol/kg BW, n=8) or compound B (0.1 nmol/kg BW, n=8; 1 nmol/kg BW, n=12; 10 nmol/kg BW, n=9) were injected into the right lateral ventricle (stereotaxic coordinates PA-0.5 mm, lateral-1.0 mm from bregma, and ventral-2.5 mm relative to dura) over 30 sec, with the help of 1-μL Hamilton® syringe, and the needle was left in place for an additional 2 min. Twenty minutes later, 0.3 μl of 50 mM NMDA was injected into the right striatum over 2 min and the needle was left in place for additional 5 min. The NMDA-lesion control group (n=12) received 0.3 μL NMDA, and the vehicle-NMDA control group (n=11) received 0.2 μL vehicle ICV, followed by 0.3 μL NMDA in the striatum. Sham control and vehicle control groups were treated similarly with saline. After injections, mice were placed in a thermoregulated chamber maintained at 31° C. and returned to their cages after full recovery from anesthesia. Throughout the experimental procedure, rectal temperature of mice was monitored and maintained at 37.0±0.5° C.
(§2) At 48 h […], weight and rectal temperature were recorded and brains were harvested and immediately frozen in 2-methyl butane (pre-cooled over dry ice). Brain sections were cut on a cryostat and stained with cresyl violet to estimate lesion volume. Images of the brain sections were taken and analyzed with the help of SigmaScan Pro 5.0 (Systat, Inc., Point Richmond, Calif.).
Data were analyzed using SigmaStat 2.0 (Systat), and significance level was set at p<0.05. Statistical analysis was performed by Student's t-test. All data are reported as means±s.d.

[2] = test system: NMDA-induced toxicity in EP1−/− mice; experiment: NMDA-induced brain lesion after ICV treatment, EP1−/− mice; assay type: in vivo; details: ICV treatment of EP1−/− mice, compared to the untreated EP1−/− group
Method: as §1
Weight and rectal temperature of each mouse was recorded before the surgical procedure. The mouse was subjected to intracerebroventricular (ICV) injection of vehicle or freshly prepared compound A or compound B followed by unilateral intrastriatal injection of NMDA, prepared in phosphate buffer saline (pH˜7.2) (J. Neurosci. 1997, 17, 6908-6917). In brief, each mouse was anesthetized, maintained at 1.0% halothane, and mounted on a stereotaxic frame (Stoelting Co., Wood Dale, Ill.). […] Throughout the experimental procedure, rectal temperature of mice was monitored and maintained at 37.0±0.5° C.
as §2, with “Brain sections were cut on a cryostat and stained with cresyl violet to estimate lesion volume.” left out
Data were analyzed using SigmaStat 2.0 (Systat), and significance level was set at p<0.05. […]

[3] = 0.1 nmol/kg BW ICV pretreatment 20 min before intrastriatal 50 mM NMDA
[4] = 1 nmol/kg BW ICV pretreatment 20 min before intrastriatal 50 mM NMDA
[5] = 10 nmol/kg BW ICV pretreatment 20 min before intrastriatal 50 mM NMDA

SMILES: CC(C)CN(c1ccc(C(F)(F)F)cc1OCc1ccc(/C=C/C(=O)O)cc1)S(=O)(=O)c1ccco1 [compound B, (2E)-3-(4-{[2-[(2-furylsulfonyl)(isobutyl)amino]-5-(trifluoromethyl)phenoxy]methyl}phenyl)acrylic acid]
- brain lesion volume (NMDA-induced) [1, 3]: No significant protection
- brain lesion volume (NMDA-induced) [1, 4]: significantly decreased
- brain lesion volume (NMDA-induced) [1, 5]: significantly decreased
- toxicity (lesion volume) of the 10 nmol/kg BW dose compared to the 1 mmol/kg BW group ([1]; 10 nmol/kg BW ICV pretreatment, NMDA-induced lesion): slight, but not significant, toxicity
- lesion volume to NMDA-induced toxicity in EP1−/− mice [2]: no significant difference

SMILES: CCCC[C@H](C)C[C@H](O)/C=C/[C@H]1[C@H](O)CC(=O)[C@@H]1CC(=O)C1CCC(C(=O)O)CC1 (stereo partly drawn) [compound A, 4-({(1R,2R,3R)-3-hydroxy-2-[(1E,3S,5S)-3-hydroxy-5-methylnon-1-enyl]-5-oxocyclopentyl}acetyl)cyclohexanecarboxylic acid, reference compound]
- brain lesion volume (NMDA-induced) [1, 3]: non-significant increases
- brain lesion volume (NMDA-induced) [1, 4]: non-significant increases
- brain lesion volume (NMDA-induced) [1, 5]: significant increase
